Test results: US8501166B2, “Pyrimidinyl indole compounds” (Hutchison Medipharma Limited, priority 2010, dated 2013)
Counter-ions that a name gives are not always drawn.

Legend:
[1] = system: OVA-induced airway inflammation; test: Ovalbumin (OVA)-induced pulmonary inflammation in mice; assay type: in vivo, Balb/c mice
Description: A compound of the present invention is tested in an OVA-induced pulmonary inflammation model in mice essentially as described in a method reported in the literature (Muriel Pichavant, Sho Goya, Eckard Hamelmann, Erwin W. Gelfand, and Dale T. Umetsu. Animal Models of Airway Sensitization. Current Protocols in Immunology. (1999) 15.18.1-15.18.13). Briefly, female Balb/c mice weighing from 18 to 20 g are sensitized by introperitoneal injection of 100 μL of saline containing 20 μg of OVA and 2 mg of aluminum hydroxide on day 1 and 14. On days 28, 29 and 30, mice are challenged once each by aerosolizing 1% ovalbumin (OVA) in phosphate buffered saline (PBS) for 20 minutes with Buxco Mass Dosing System. […] On day 32, animals from each group are anesthetized with 1% of pentobarbital sodium. The thoracic and abdominal cavities are opened and plasma is collected from centrifuged specimens. The trachea is then dissected and transected. Through the insertion of an 18-gauge catheter into the trachea, the lungs are lavaged with a total of 1.5 mL of sterile PBS and then placed into a specimen container. Cell-free BAL supernatants are obtained by centrifugation of BAL fluids. All serum and BAL supernatants are stored at −80° C. until use. Differential cell counts are performed on cytospin preparations of BAL cells for cell counting and cytokine determination. After the collection of BAL supernatants, the lungs of recipient mice are removed en bloc and fixed by an intratracheal instillation of 10% buffered formalin (in PBS). Three to six paraffin sections are obtained from the perihilar regions of recipient lungs, stained with hematoxylin and eosin, and examined under light microscopy for pathological study.

[2] = system: SKOV-3x-FF-luci human ovarian cancer xenograft; test: Anti-tumor effects in SKOV-3x-FF-luci xenograft (alternate protocol, 23 days); assay type: in vivo, Balb/c nu/nu mice
Description: Alternately, the test compound is evaluated for its anti-tumor effects on tumor growth of human ovarian cancer SKOV-3x-FF-luci in nude mice. SKOV-3x-FF-luci cell line (ATCC) is cultured in McCoy's 5a medium containing 10% fetal calf serum. Female Balb/c nu/nu mice (6-7 weeks old) are injected peritoneally with 0.2 mL of cell suspension containing 2×10^6 cells. Mice are randomized and divided into four groups six days after cell implantation. The test compound at doses of 30 and 100 mg/kg is orally administered to animals twice a day for 23 consecutive days. Mice in the control group are administered the vehicle (10% Acacia), twice a day. Mice in the positive control group are injected with Cisplatin (4 mg/kg) via the tail vein once a week. At the end of the treatment, all mice are euthanized with CO2 and tumor nodules in the peritoneal cavity, diaphragmatic muscle, mesenterium, liver, spleen, and ovaries are dissected, harvested, and combined for the measurement of weight. Inhibition rate: IR %=(tumor weight in control−tumor weight in drug treated)/tumor weight in control×100%).

[3] = system: SKOV-3x-FF-luci human ovarian cancer xenograft; test: Antitumor effect in SKOV-3x-FF-luci xenograft with vincristine (VCR); assay type: in vivo, Balb/c nu/nu mice
Description: In order to expand the anti-tumor spectrum, more combination testing is explored. Based on in vitro synergistic effect of Example 1 and VCR, the compound is tested for its anti-tumor effects in SKOV-3x-FF-luci xenograft in the presence/absence of VCR. The SKOV-3x-FF-luci human ovarian cancer line (ATCC) is cultured in McCoy's 5a medium containing 10% FCS. Female Balb/c nu/nu mice (6-7 weeks old) are peritoneally injected with 0.2 mL of cell suspension containing 2×10^6 cells. Mice are divided into nine groups six days after cell implantation. The test compound is orally administered twice a day at 60 mg/kg for 20 consecutive days or at 90 mg/kg with a 2 days on and 5 days off dosing schedule. VCR at 1 or 0.3 mg/kg is administered via tail vein injection, once a week. In the combination group, VCR is given 1 h after the administration of the test compound. Mice from the control group are administered with the oral vehicle (10% Acacia at pH2.1) and intraperitoneally injected with saline. At the end of the treatment, all mice are euthanized with CO2 and tumors in the peritoneal cavity, diaphragmatic muscle, mesenterium, liver, spleen, and ovaries are harvested with surgery scissors and weighted. […] In the combination group, tumor growth is inhibited by 76% and 74%. Compared with monotherapy, statistical significance is found between combination and monotherapy.

[4] = system: SKOV-3x-FF-luci human ovarian cancer xenograft; test: Anti-tumor effects in SKOV-3x-FF-luci xenograft (21 days); assay type: in vivo, Balb/c nu/nu mice; conditions: 60 mg/kg, tid, q6 h, oral
Description: Anti-tumor Effects in Human Ovarian Cancer SKOV-3x-FF-luci Xenograft SKOV-3x-FF-luci human ovarian cancer line cell line (ATCC) is cultured in McCoy's 5a medium containing 10% fetal calf serum (FCS). Female Balb/c nu/nu mice (6-8 weeks old) are peritoneally injected with 0.2 mL of cell suspension containing 2×10^6 cells. Mice are divided into five groups six days after cell implantation. The test compound at doses of 60, 90 and 150 mg/kg is orally administered to animals for a consecutive 21 days with a twice a day (bid) or three times a day (tid) regimen. Mice in control groups are administered the vehicle (10% Acacia at pH 2.1, bid). At the end of the treatment, all mice are euthanized with CO2 and tumors in the peritoneal cavity, diaphragmatic muscle, mesenterium, liver, spleen, and ovaries are dissected and harvested, and put together for the measurement of their combined weight. Results of tumor weight and inhibition rate (IR) are evaluated. The inhibition rate is calculated with the formula: IR %=(tumor weight in control−tumor weight in drug treated)/tumor weight in control×100%.

| Compound | decrease of eosinophil cell numbers ([1]; 1 mg/kg (bid)) | decrease of eosinophil cell numbers ([1]; 3 mg/kg (bid)) | decrease of eosinophil cell numbers ([1]; 10 mg/kg (bid), p<0.05) | reduction of IL-13 production ([1]; 10 mg/kg, p<0.05) | decrease of eosinophil cell numbers ([1]; 30 mg/kg (bid), p<0.05) | reduction of IL-13 production ([1]; 30 mg/kg, p<0.01) | lung histology, hematoxylin and eosin stains ([1]; Example 2 at 1 to 30 mg/kg) | tumor inhibition rate (IR) ([2]; 30 mg/kg oral twice a day) | tumor inhibition rate (IR) ([2]; 100 mg/kg oral twice a day) | tumor growth inhibition ([3]; Example 1 alone 60 mg/kg oral twice a day, 20 days) | tumor growth inhibition ([3]; Example 1 alone 90 mg/kg, 2 days on and 5 days off) | tumor growth inhibition ([3]; combination group: Example 1 60 mg/kg + VCR) | tumor growth inhibition ([3]; combination group: Example 1 90 mg/kg + VCR) | Tumor Weight (g) (Mean ± S.D.) [4] | IR (tumor inhibition rate) ([4]; hydrochloride) |
| --- | --- | --- | --- | --- | --- | --- | --- | --- | --- | --- | --- | --- | --- | --- | --- |
| Cl.O=C(NC1CC1)c1cccc2[nH]c(-c3nc(N[C@@H]4CCC[C@H]4O)ncc3Cl)cc12 [Example 2, 2-{5-Chloro-2-[(1R,2R)-2-hydroxycyclopentylamino]pyrimidin-4-yl}-N-cyclopropyl-1H-indole-4-carboxamide hydrochloride] | 58.6% | 49.3% | 94.1% | 73.0% | 90.2% | 85.1% | improvement in pulmonary inflammation | 59.3% | 93.9% | – | – | – | – | – | – |
| O=C(NC1CC1)c1cccc2[nH]c(-c3nc(N[C@@H]4CCC[C@@H]4O)ncc3Cl)cc12 [Example 1, 2-{5-Chloro-2-[(1R,2S)-2-hydroxycyclopentylamino]pyrimidin-4-yl}-N-cyclopropyl-1H-indole-4-carboxamide hydrochloride] | – | – | – | – | – | – | – | – | – | 42% | 36% | 76% | 74% | 0.509 ± 0.193 g | 76.31% |
